US7273723B2, “Antibiotic-based gene regulation system” (priority 2001, dated 2007)

How the values were obtained:
[1] = system: ET1 (MphR(A)-VP16) / PETR promoters; assay: SEAP reporter assay, CHO lines stably expressing ET1 (CHO-ET11, CHO-ET12) transiently transfected with PETR-SEAP plasmids; type: cell-based; details: for SEAP production [%]: CHO-ET11 transiently transfected with pWW38, 48 h, antibiotic 2 μg/ml, no macrolide = 100
Procedure: (§1) Chinese hamster ovary cells (CHO-K1, ATCC: CCL 61), and HeLa cells (ATCC: CRL-7923) as well as stable cell lines derived thereof were cultured as described before (Fussenegger et al., 1998, Nat. Biotechnol. 16,468-472) in the presence of appropriate antibiotics: G418 400 μg/ml; zeocin 100 μg/ml. Optimized CaPO4 protocols were used for high efficiency transient transfection of all cell lines (Fussenegger et al., 1998. Nat. Biotechnol. 16: 468-472). Transiently transfected cells were routinely analyzed after 48 h for CFP or SEAP expression using fluorescence microscopy and p-nitrophenolphosphate-based light absorbance timecourse, respectively, as described before (Fussenegger et al., 1998, Nat. Biotechnol. 16, 468-472; Berger et al., 1988, Gene 66, 1-10 b). For construction of stable CHO-ET1 and CHO-Triplet42 cell lines, CHO-Ki and CHO-TWIN1108 (Disclosed in PCT application no. 00/65080) were cotransfected with pWW35 and pZeoSV2 (invitrogen). CHO-ET11-SEAP was constructed by cotransfection of pWW38 and pSV2neo (Clontech) into CHO-ET11. The mixed populations were cloned using FACS-mediated single-cell-sorting (FACStar^Plus; Beckton Dickinson). For assessment of dose-response characteristics of PETR3-regulated gene expression, CHO-ET11-SEAP were cultured at cell densities of 50,000/ml for 48 h at various EM concentrations.
(§2) Other antibiotics were eluted from antibiotic test discs (Mast Diagnostica GmbH, Reinfeld, Germany, or bioMérieux, Geneva Switzerland) in cell culture medium at 37° C. for 12 h to reach a final concentration of 30 μg/ml. All macrolide antibiotics were used at a 2 μg/ml concentration unless indicated otherwise.
Two representative clones, CHO-ET11 and CHO-ET12, were chosen at random among ET1-expressing CHO cell clones stably transfected with a constitutive ET1 expression construct (pWW35).
Access to alternative effective antibiotics would expand the spectrum of regulating agents available for future use in human cell and gene therapy. Accordingly, several commercially available antibiotic sources were tested for their potential to regulate the ET1/PETR3 system as shown below in Table 3.
The effect of the different spacer length in promoters PETR2 and PETR7-PETR11 were examined by transfecting the corresponding plasmids (pWW37, pBP10-pBP14) into a CHO cell line stably transfected with the transactivator ET1 (MphR(A)-VP 16, see example 1).

[2] = saliva, sputum, lung tissue, epithelial lining fluid, alveolar macrophages, neutrophils, tonsils, nasal mucosa, middle ear fluid; cited from earlier work
[3] = system: PIT / pristinamycin-responsive promoter PPIR; assay: SEAP assay in CHO-Triplet42 transfected with PPIR-SEAP (pMF172); type: cell-based; details: for SEAP activity [U/L]: CHO-Triplet42 + pMF172 (PPIR), antibiotic 2 μg/ml, 48 h
Procedure: as §1, §2
(§3) The regulation performance of the EM-based regulation system was compared directly with the widely used TET- and PIP responsive expression concepts. To this end, we have constructed a stable CHO-K1-derived cell line expressing ET1, PIT and tTA (CHO-Triplet42). […] CHO-Triplet42 was transfected with either isogenic (i) PETR3-(pWW38), (ii) a PPIR-(pristinamycin-responsive promoter, pMF172, Fussenegger et al., 2000. supra.), or (iii) a PhCMV*-1-(tetracycline-responsive promoter, pMF111, Fussenegger et al., 2000. supra) driven SEAP expression vector to assess the individual regulation performance of the three antibiotic-responsive gene regulation systems in CHO cells (Table 5).
(§4) To analyze the relative regulatory characteristics, we evaluated induction factors (IF; ratio of maximal expression level to antibiotic-repressed expression level).
(§5) These repressive effects are still in a range which is tolerable for use in potential medical applications.

[4] = system: ET1 / erythromycin-responsive promoter PETR3; assay: SEAP assay in CHO-Triplet42 transfected with PETR3-SEAP (pWW38); type: cell-based; details: antibiotic 2 μg/ml; for SEAP activity [U/L]: CHO-Triplet42 + PWW38 (PETR3), 48 h
Procedure: as §1, §2, §3, §4, §5

[5] = target: T1, tTA / tetracycline-responsive promoter PhCMV*-1 (Escherichia coli, UniProt P04483); assay: SEAP assay in CHO-Triplet42 transfected with PhCMV*-1-SEAP (pMF111); type: cell-based; details: antibiotic 2 μg/ml
T1 construct: expressed in transfected cells; host or cells: CHO-Triplet42 (from CHO-TWIN1108)
Procedure: as §1, §2

Compound: CC[C@H]1OC(=O)[C@H](C)[C@@H](O[C@H]2C[C@@](C)(OC)[C@@H](O)[C@H](C)O2)[C@H](C)[C@@H](O[C@@H]2O[C@H](C)C[C@H](N(C)C)[C@H]2O)[C@](C)(O)C[C@@H](C)CN(C)[C@H](C)[C@@H](O)[C@]1(C)O [Azithromycin]
- SEAP production [%] [1]: 57.6 ± 4.4%

Compound: CO/N=C(\C(=O)N[C@@H]1C(=O)N2C(C(=O)O)=C(CSc3nc(=O)c(=O)[nH]n3C)CS[C@H]12)c1csc(N)n1 [Ceftriaxone]
- SEAP production [%] [1]: 28.8 ± 1.8%

Compound: CC[C@H]1OC(=O)[C@H](C)[C@@H](O[C@H]2C[C@@](C)(OC)[C@@H](O)[C@H](C)O2)[C@H](C)[C@@H](O[C@@H]2O[C@H](C)C[C@H](N(C)C)[C@H]2O)[C@](C)(OC)C[C@@H](C)C(=O)[C@H](C)[C@@H](O)[C@]1(C)O [Clarithromycin]
- Induction factor (ratio of SEAP activity without antibiotic to SEAP activity with antibiotic) ([1]; CHO-ET11 + pWW38, 2 μg/ml): 23
- SEAP production [%] [1]: 4.3 ± 0.3%
- diffusion into tissues and fluids [2]: extensive diffusion

Compound: CC[C@H]1OC(=O)[C@H](C)[C@@H](O[C@H]2C[C@@](C)(OC)[C@@H](O)[C@H](C)O2)[C@H](C)[C@@H](O[C@@H]2O[C@H](C)C[C@H](N(C)C)[C@H]2O)[C@](C)(O)C[C@@H](C)/C(=N\OCOCCOC)[C@H](C)[C@@H](O)[C@]1(C)O [Roxithromycin]
- SEAP production [%] [1]: 18.1 ± 0.9%

Compound: CN(C)[C@@H]1C(O)=C(C(N)=O)C(=O)[C@@]2(O)C(O)=C3C(=O)c4c(O)cccc4[C@@](C)(O)[C@H]3C[C@@H]12 [Tet, tetracycline]
- SEAP activity [U/L] [3]: 4.6 ± 0.4 U/L
- SEAP activity [U/L] [4]: 55.0 ± 8.3 U/L

Compound: CC[C@H]1OC(=O)C[C@@H](O)[C@H](C)[C@@H](O[C@@H]2O[C@H](C)[C@@H](O[C@H]3C[C@@](C)(O)[C@@H](O)[C@H](C)O3)[C@H](N(C)C)[C@H]2O)[C@@H](CC=O)C[C@@H](C)C(=O)/C=C/C(C)=C/[C@@H]1CO[C@@H]1O[C@H](C)[C@@H](O)[C@@H](OC)[C@H]1OC [Tylosin]
- SEAP production [%] [1]: 30.9 ± 3.2%

Compound: pristinamycin I [PI]
- SEAP activity [U/L] [3]: 2.2 ± 0.1 U/L
- Induction factor ([3]; Pip-system in CHO-Triplet42): three-fold
- SEAP activity [U/L] ([5]; CHO-Triplet42 + pMF111 (PhCMV*-1), 48 h): 87.9 ± 7.0 U/L
- Antibiotic crossregulation of PhCMV*-1 ([5]; CHO-Triplet42 + pMF111): no significant interference
- SEAP activity [U/L] [4]: 71.9 ± 7.0 U/L
- Antibiotic crossregulation of PETR3 ([4]; CHO-Triplet42 + pWW38): no significant interference
